Among the data in patent US9409905B2, “Antibacterial compounds and methods for use” (PTC THERAPEUTICS, INC., priority 2011, dated 2016) are MIC values, retold here.

Converted amounts (≈) assume the structure as drawn.

One test deals with E. coli 25922. Description: Antibacterial activity, microbroth dilution MIC (Table 1). In kind it is cell-based, Escherichia coli. As to conditions: Escherichia coli; microbroth dilution; control Gram-negative E. coli 25922 strain; read-out: MIC, 25922. Put shortly: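 Broth microdilution against S. aureus 29213, E. coli 25922 and hypersensitive E. coli BAS849. MIC in μg/mL is the lowest drug concentration preventing macroscopically visible growth under test conditions.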
On the technique in general: Dilution methods test growth across graded concentrations, often in twofold steps.

Test [1] has as its system Staphylococcus aureus (S. aureus) 29213. The description is as above. The class given is cell-based. The settings on record: microbroth dilution, Gram-positive S. aureus 29213, read-out: MIC, 29213. Put shortly: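 Using broth microdilution, MIC endpoints (μg/mL) mark where visible growth no longer appears; the panel spans sensitive and control Gram-negative strains plus a Gram-positive strain.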

In test [2] the test system is Escherichia coli (E. coli) BAS849. Described as above. In kind it is cell-based. As to conditions: microbroth dilution, super sensitive Gram-negative E. coli BAS849, read-out: MIC, BAS849. In outline:
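Lowest concentration stopping macroscopically visible growth under test conditions, by broth microdilution, defines the MIC (μg/mL).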

In test [3] the test system is Haemophilus influenzae (H. influenzae) 49247. In words: Antibacterial activity, MIC (Table 6). The class given is cell-based. An excerpt: (§1) The antibacterial activity from a microbroth dilution method may be presented as the minimum inhibitory concentration (MIC in μg/mL). The MIC value is the lowest concentration of drug which prevents macroscopically visible growth under test conditions.
(§2) Antibacterial activity of test compounds against the Gram-negative bacteria Haemophilus influenzae (H. influenzae) 49247 is shown in Table 6, Moraxella catarrhalis (M. catarrhalis) 25238 is shown in Table 7 and Neisseria meningitidis (N. meningitidis) 13090 is shown in Table 8.

For test [4], the system named is Neisseria meningitidis (N. meningitidis) 13090. Description: Antibacterial activity, MIC (Table 8). In kind it is cell-based.
From the text: as §1, §2

The next test concerns E. coli ELZ4000. In words: Antibacterial activity, MIC, multi-drug resistant clinical isolate (Table 3). The class given is cell-based. The settings on record: Escherichia coli, ELZ4000, read-out: MIC ELZ4000. In outline:
(§3)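 Growth inhibition is measured by microbroth dilution, and the minimum inhibitory concentration in μg/mL corresponds to the lowest drug level that prevents visible bacterial growth.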

The test system of a further test is E. coli ELZ4251. Described as above. In kind it is cell-based. As to conditions: Escherichia coli. In outline: as §3
Another test deals with E. coli LZ3111. Description: Antibacterial activity, MIC, quinolone resistant strain (Table 2). The class given is cell-based. As to conditions: Escherichia coli, LZ3111, read-out: MIC LZ3111. In outline:
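Lowest concentration giving no macroscopically visible growth was taken as the MIC (μg/mL) after microbroth dilution testing.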

Take `CCc1c(-c2ccc3c(c2)CCCN3C)[nH]c(=O)c(C(=O)O)c1O` [Cpd 2, 5-ethyl-4-hydroxy-6-(1-methyl-1,2,3,4-tetrahydroquinolin-6-yl)-2-oxo-1,2-dihydropyridine-3-carboxylic acid]: the MIC in the test on E. coli 25922 was 12.5 to 150 µg/mL (≈ 38.1 to 457 µM); in test [1], 3.5 to 12.5 µg/mL (≈ 10.7 to 38.1 µM); in test [2], less than 1 µg/mL; in test [3] it was less than 1 µg/mL; in test [4], less than 1 µg/mL.

Turning to `CCc1c(-c2ccc3c(ccn3CC)c2)[nH]c(=O)c(C(=O)O)c1O` [Cpd 10, 5-ethyl-6-(1-ethyl-1H-indol-5-yl)-4-hydroxy-2-oxo-1,2-dihydropyridine-3-carboxylic acid], the MIC in the test on E. coli 25922 is 3.5 to 12.5 µg/mL (≈ 10.7 to 38.3 µM); in the test on E. coli ELZ4000, 12.5 to 150 µg/mL (≈ 38.3 to 460 µM); with E. coli ELZ4251, 12.5 to 150 µg/mL (≈ 38.3 to 460 µM); in test [1], 1 to 3.5 µg/mL (≈ 3.06 to 10.7 µM); in test [2] it was less than 1 µg/mL; with E. coli LZ3111, 12.5 to 150 µg/mL (≈ 38.3 to 460 µM). Further, the MIC in test [3] and in test [4] was less than 1 µg/mL in each case.

On to `CC(C)c1cc(C(=O)O)c(=O)[nH]c1-c1ccc2c(ccn2C)c1` [Cpd 33, 5-isopropyl-6-(1-methyl-1H-indol-5-yl)-2-oxo-1,2-dihydropyridine-3-carboxylic acid], for which the MIC in the test on E. coli 25922 was 3.5 to 12.5 µg/mL (≈ 11.3 to 40.3 µM); with E. coli ELZ4000 it was 12.5 to 150 µg/mL (≈ 40.3 to 483 µM); against E. coli ELZ4251, 12.5 to 150 µg/mL (≈ 40.3 to 483 µM); in test [1], 12.5 to 150 µg/mL (≈ 40.3 to 483 µM); in test [2] it was less than 1 µg/mL; with E. coli LZ3111, 12.5 to 150 µg/mL (≈ 40.3 to 483 µM). Moreover, the MIC in test [3] and in test [4] was less than 1 µg/mL throughout.

As to `Cn1ccc2cc(-c3[nH]c(=O)c(C(=O)O)cc3C3CC3)ccc21` [Cpd 35, 5-cyclopropyl-6-(1-methyl-1H-indol-5-yl)-2-oxo-1,2-dihydropyridine-3-carboxylic acid], the MIC is 1 to 3.5 µg/mL (≈ 3.24 to 11.4 µM) in the test with E. coli 25922; 12.5 to 150 µg/mL (≈ 40.5 to 486 µM) in the test with E. coli ELZ4000; 12.5 to 150 µg/mL (≈ 40.5 to 486 µM) against E. coli ELZ4251; 12.5 to 150 µg/mL (≈ 40.5 to 486 µM) in test [1]; less than 1 µg/mL in test [2]; 12.5 to 150 µg/mL (≈ 40.5 to 486 µM) with E. coli LZ3111. Besides, the MIC in test [3] and in test [4] was less than 1 µg/mL throughout.

For the molecule `CCc1cc(C(=O)O)c(=O)[nH]c1-c1ccc2c(c1)cc(C)n2C` [Cpd 37, 6-(1,2-dimethyl-1H-indol-5-yl)-5-ethyl-2-oxo-1,2-dihydropyridine-3-carboxylic acid], the MIC in the test with E. coli 25922 was less than 1 µg/mL; with E. coli ELZ4000 it was 12.5 to 150 µg/mL (≈ 40.3 to 483 µM); in the test with E. coli ELZ4251 it was 12.5 to 150 µg/mL (≈ 40.3 to 483 µM); in test [1], 1 to 3.5 µg/mL (≈ 3.22 to 11.3 µM); in test [2], less than 1 µg/mL; in the test on E. coli LZ3111, 12.5 to 150 µg/mL (≈ 40.3 to 483 µM). For the same molecule, the MIC in test [3] and in test [4] was less than 1 µg/mL each time.

Take `CCc1c(-c2ccc3c(c2)cc(C)n3C)[nH]c(=O)c(C(=O)O)c1O` [Cpd 38, 6-(1,2-dimethyl-1H-indol-5-yl)-5-ethyl-4-hydroxy-2-oxo-1,2-dihydropyridine-3-carboxylic acid]: the MIC in the test with E. coli 25922 is 1 to 3.5 µg/mL (≈ 3.06 to 10.7 µM); in the test on E. coli ELZ4000, 12.5 to 150 µg/mL (≈ 38.3 to 460 µM); with E. coli ELZ4251, 12.5 to 150 µg/mL (≈ 38.3 to 460 µM); in test [1], 1 to 3.5 µg/mL (≈ 3.06 to 10.7 µM); in test [2], less than 1 µg/mL; with E. coli LZ3111, 12.5 to 150 µg/mL (≈ 38.3 to 460 µM). Also, the MIC in test [3] and in test [4] was less than 1 µg/mL in each case.

For `CCc1cc(C(=O)O)c(=O)[nH]c1-c1ccc2c(c1)cc(CO)n2C` [Cpd 39, 5-ethyl-6-(2-(hydroxymethyl)-1-methyl-1H-indol-5-yl)-2-oxo-1,2-dihydropyridine-3-carboxylic acid], the MIC in the test on E. coli 25922 was 1 to 3.5 µg/mL (≈ 3.06 to 10.7 µM); in the test with E. coli ELZ4000 it was 12.5 to 150 µg/mL (≈ 38.3 to 460 µM); in the test with E. coli ELZ4251 it was 12.5 to 150 µg/mL (≈ 38.3 to 460 µM); in test [1], 3.5 to 12.5 µg/mL (≈ 10.7 to 38.3 µM); in test [2], less than 1 µg/mL; in the test with E. coli LZ3111, 12.5 to 150 µg/mL (≈ 38.3 to 460 µM). The MIC in test [3] and in test [4] was less than 1 µg/mL throughout.
